Laboratory results: US20110079773A1, “Selectively Functionalized Rylene Imides and Diimides” (priority 2009, published 2011)
Values after ≈ are worked out from the molar mass of the structure shown. Values joined by “and” are separate entries in the source; they are usually repeats but may differ in a detail not shown here. Identical values can stand only once. Like-named read-outs stand apart in the source and are kept apart here. Marks after values point to notes of the source that are not given here.

Columns and labels:
[1] = Steady-state electronic absorption and fluorescence spectroscopy; type: physicochemical; settings: for E(S1): determined from the average energy of the absorption and emission maxima; for λmax: UV-vis absorption in toluene; for ε: extinction coefficient at λmax; for ε / λem: toluene; for λem: fluorescence emission maximum; for φF: fluorescence quantum yield
Protocol: Steady-state electronic absorption spectra were recorded on a Shimadzu 1601 UV/Vis spectrometer with a 2 mm quartz cuvette. Fluorescence measurements were performed using a PTI Quanta-Master 1 single photon counting spectrofluorimeter in a right angle configuration with a 1 cm quartz cuvette.
The intensity of the S0→>S1 transition increases with the size of the aromatic core, while the energy decreases. The fluorescence spectrum of each chromophore is shown in FIG. 4b and summarized in Table 4 along with that of compounds 1, 3, 5, 7, and 9. A similar trend with the emission maxima moving to longer wavelengths as the size of the aromatic core increases was observed. The electronic absorption and fluorescence properties of all the alkylated chromophores are very similar to those of the parent compounds. No observable trend is apparent for the slight shifts in λmax; however, with the exception of 2, all alkylated compounds have slightly lower extinction coefficients than their parent compounds. The fluorescence emission maxima of the alkylated compounds (Table 4) are similar to those of the parent compounds as reported in the literature. See Hydlovic et al., Phtochem. Photobiol. A., 112: 197-203 (1998); Licchelli et al., Chem. Eur. J., 8: 5161-5169 (2002); Weil et al., Chem. Eur. J., 8: 4742-4750 (2002); and Sadrai et al., J. Phys. Chem., 96: 7988-7996 (1992).

[2] = literature values (footnotes a Gosztola et al., c Lee et al.), cited from earlier work; for E^−1/2: first reduction potential; for E^2−1/2: second reduction potential
[3] = cited from earlier work; for ε: extinction coefficient at λmax; for ε / λem: literature values (footnotes a, b); for λem: fluorescence emission maximum; for φF: fluorescence quantum yield, literature values (footnotes d-h); for λmax: literature values (footnotes a Gosztola et al., b Holtrup et al.)
[4] = literature values (footnote a Hayes et al.); cited from earlier work
[5] = Electrochemistry (redox potentials); type: physicochemical; settings: for E^−1/2: first reduction potential; for Reduction potential more negative than that of parent compound: shift versus unsubstituted parent; for E^2−1/2: second reduction potential; for E^+1/2: oxidation potential
Protocol: Electrochemical measurements were performed using a CH Instruments Model 622 electrochemical workstation. Measurements for compounds 4, 6, 8, and 10 were performed in dichloromethane containing 0.1 M tetrabutylammonium hexafluorophosphate (TBAPF6) electrolyte. Measurements for 2 were performed in benzonitrile with the same electrolyte. A 1.0 mm diameter platinum disk electrode, platinum wire electrode, and […] reference electrode were employed. The ferrocene/ferrocenium redox couple (Fc/Fc^+, 0.46 V vs. SCE) (see Connelly et al., Chem. Rev., 96: 877-910 (1996)) was used as an internal standard. TBAPF6 was recrystallized twice from ethyl acetate prior to use.
Alkylation (e.g., substitution of the phenethyl groups) ortho to the imide nitrogen atoms appears to render the present compounds somewhat more difficult to reduce, but easier to oxidize (Table 3). The reduction potentials of the disubstituted compounds (2, 4, and 6) are approximately 130 mV more negative than those of their parent compounds. Correspondingly, the oxidation potential of the disubstituted 6 is 40 mV less positive than that of […]. Tetrasubstituted 8 and 10 have reduction potentials that are more negative by ˜200 mV than their unsubstituted analogs. These shifts in redox potentials reasonably arise from the electron-donating nature of the alkylating (e.g., phenethyl) groups. The oxidation and reduction potentials of all alkylated molecules shift in the same direction by nearly the same amount, such that the corresponding HOMO-LUMO energy gap remains the same, as is reflected in their electronic absorption and emission spectra described below.

[6] = Femtosecond transient absorption (excited-state decay); type: physicochemical; settings: transient absorption decay time constant, dry toluene
Description: Femtosecond transient absorption measurements were made using a Ti:sapphire laser system as detailed in previously reported work. See Kelley et al., J. Am. Chem. Soc., 129: 3173-3181 (2007). The wavelengths used to excite the samples were 390 nm (1-4), 416 nm (5-8), and 650 nm (9 and 10). The instrument response function for the pump-probe experiments is 160 fs. The transient spectra were obtained using 10 s of averaging at a given delay time. Glass cuvettes with a 2 mm pathlength were used and the samples were dissolved in dry toluene and irradiated with 1.0 μJ pulses at the excitation wavelength. Analysis of the kinetic data was performed at multiple wavelengths using a Levenberg-Marquardt nonlinear least-squares fit to a general sum-of-exponentials function with an added Gaussian to account for the finite instrument response.
The transient absorption spectra of naphthalene monoimide 2, specifically, the S1→>Sn absorption is characterized by a single broad band at 525 nm, which decays monoexponentially with a time constant τD=34 ps. This is similar to the time constant of other NMI compounds and is attributed to rapid intersystem crossing leading to the triplet state of 2. […] The residual 530 nm absorption band decays further with a 175 ps time constant. […]

[7] = Solubility in toluene; type: physicochemical; settings: for solubility: organic solvent or mixture
Protocol: As used herein, a compound can be considered soluble in a solvent when at least 0.1 mg of the compound can be dissolved in 1 mL of the solvent. Examples of common organic solvents include petroleum ethers; acetonitrile; aromatic hydrocarbons such as benzene, toluene, xylene, and mesitylene; ketones such as acetone, and methyl ethyl ketone; ethers such as tetrahydrofuran, dioxane, bis(2-methoxyethyl)ether, diethyl ether, di-isopropyl ether, and t-butyl methyl ether; alcohols such as methanol, ethanol, butanol, and isopropyl alcohol; aliphatic hydrocarbons such as hexanes; esters such as methyl acetate, ethyl acetate, methyl formate, ethyl formate, isopropyl acetate, and butyl acetate; amides such as dimethylformamide and dimethylacetamide; sulfoxides such as dimethylsulfoxide; halogenated aliphatic and aromatic hydrocarbons such as dichloromethane, chloroform, ethylene chloride, chlorobenzene, dichlorobenzene, and trichlorobenzene; and cyclic solvents such as cyclopentanone, cyclohexanone, and 2-methypyrrolidone. In various embodiments, the present compounds can have good solubility in solvents that are aromatic hydrocarbons such as benzene, toluene, xylene, and mesitylene.
Table 2 below compares the solubilities of several compounds according to the present teachings with their unsubstituted counterparts in toluene.

[8] = dichloromethane, 0.1 M TBAPF6, Fc/Fc+ (0.46 V vs. SCE) internal standard

| Molecule | E(S1) [1] [eV] | E^−1/2 [2] | ε [3] [M⁻¹ cm⁻¹] | λem [3] | φF [3] | λmax [3] [nm] | τD [4] | Reduction potential more negative than that of parent compound [5] | λmax [1] [nm] | ε [1] [M⁻¹ cm⁻¹] | λem [1] | φF [1] | E^2−1/2 [2] | E^−1/2 [5, 8] | solubility [7] [µg/mL] | E^+1/2 [5, 8] [V] | further results |
| --- | --- | --- | --- | --- | --- | --- | --- | --- | --- | --- | --- | --- | --- | --- | --- | --- | --- |
| CCCCCCCCN1C(=O)c2cccc3cccc(c23)C1=O [Compound 1, N-(n-octyl)-naphthalene-1,8-dicarboximide] | 3.38 | −1.40^a | 10647 | 386^a nm | 0.25^d | 350 | <50^a ps |  |  |  |  |  |  |  |  |  |  |
| CCCCCCCCN1C(=O)c2c(CCc3ccccc3)ccc3ccc(CCc4ccccc4)c(c23)C1=O [Compound 2, N-(n-octyl)-2,7-bis(phenylethyl)naphthalene-1,8-dicarboximide] | 3.34 |  |  |  |  |  |  | approximately 130 mV | 353 | 15000 | 394^ nm | 0.08 |  |  |  |  | E^−1/2 ([5]; obtained in benzonitrile with 0.1 M TBAPF6): −1.53^b; τD [6]: 34 ps and 34 ± 1 ps |
| CCCCCCCCN1C(=O)c2ccc3c4c(ccc(c24)C1=O)C(=O)N(CCCCCCCC)C3=O [Compound 3, N,N′-bis(n-octyl)-naphthalene-1,8:4,5-bis(dicarboximide)] | 3.15 | −0.48^a | 14500 | 407^a nm | 0.0018^e | 382 | <20^a ps |  |  |  |  |  | −0.99^a |  |  |  |  |
| CCCCCCCCN1C(=O)c2cc(CCc3ccccc3)c3c4c(c(CCc5ccccc5)cc(c24)C1=O)C(=O)N(CCCCCCCC)C3=O [Compound 4, N,N′-bis(n-octyl)-2,7-bis(phenethyl)naphthalene-1,8:4,5-bis(dicarboximide)] | 3.09 |  |  |  |  |  |  | approximately 130 mV | 390 | 14000 | 415^ nm | 0.0005 |  | −0.61^ |  |  | E^2−1/2 ([5]; dichloromethane, 0.1 M TBAPF6): −1.15^ |
| CCCCC(CC)CN1C(=O)c2ccc3c4cccc5cccc(c6ccc(c2c36)C1=O)c54 (centres unmarked) [Compound 5, N-(2′-ethylhexyl)-perylene-3,4-dicarboximide] | 2.38 | −1.00^c | 29970 | 539^a nm | 0.98^f | 505 | 3500 ± 100^a ps |  |  |  |  |  | −1.49^c |  | 2000 (≈ 4610 µM) | 1.41 |  |
| CCCCCCCCN1C(=O)c2c(CCc3ccccc3)cc3c4cc(CCc5ccccc5)c5c6c(c(CCc7ccccc7)cc(c7cc(CCc8ccccc8)c(c2c37)C1=O)c64)C(=O)N(CCCCCCCC)C5=O [Compound 8, N,N′-bis(n-octyl)-2,5,8,11-tetrakis(phenethyl)perylene-3, 4:9,10-bis(dicarboximide)] | 2.35 |  |  |  |  |  |  | ~200 mV | 525 | 58000 | 533^ nm | 0.99 |  | −0.75^ | 2000 (≈ 1940 µM) | 1.63 | E^2−1/2 ([5]; dichloromethane, 0.1 M TBAPF6): −0.93^ |
| CCCCC(CC)CN1C(=O)c2c(CCc3ccccc3)cc3c4ccc5c6cc(CCc7ccccc7)c7c8c(c(CCc9ccccc9)cc(c9ccc(c%10cc(CCc%11ccccc%11)c(c2c3%10)C1=O)c4c59)c86)C(=O)N(CC(CC)CCCC)C7=O (centres unmarked) [Compound 10, N,N′-bis(2-ethylhexyl)-2,5,10,13-tetrakis(phenethyl)terrylene-3, 4:11,12-bis(dicarboximide)] | 1.90 |  |  |  |  |  |  | ~200 mV | 649 | 80000 | 661^ nm | 0.95 |  | −0.83^ | 3000 (≈ 2600 µM) | 1.1 |  |
| N,N′-bis(2-ethylhexyl)-terrylene-3,4:11,12-bis(dicarboximide) [Compound 9] | 1.88 | −0.63^c | 93000 | 673^b nm | 0.95^h | 650 |  |  |  |  |  |  |  |  |  | 1.12 | Solubility in toluene [7]: <1000 µg/mL |
| N,N′-bis(n-octyl)-perylene-3, 4:9,10-bis(dicarboximide) [Compound 7] | 2.34 | −0.50^c | 80000 | 535^a nm | 0.99^g | 526 |  |  |  |  |  |  | −0.73^c |  |  | 1.67 | Solubility in toluene ([7]; toluene): <1000 µg/mL |
